“And” between values parts separate entries of the source, which are not always exact repeats. Identical values can stand only once.
How the values were obtained:
LNCaP cells [1] = test: Internalization into LNCaP cells, relative cellular uptake to ([^125I]I-BA)KuE; type: cell-based; conditions: c = 1.0 nM ^177Lu-labeled inhibitor, 37° C., 60 min, corrected for non-specific binding (10 μM 2-PMPA), mean ± SD (n = 3)
Experimental: PSMA-positive LNCAP cells (300265; Cell Lines Service GmbH) were cultivated in Dulbecco modified Eagle medium/Nutrition Mixture F-12 (1/1) (DMEM-F12, Biochrom) supplemented with fetal calf serum (FCS) (10%, Biochrom) and kept at 37° C. in a humidified CO2 atmosphere (5%). One day (24 h±2 h) prior to all experiments with LNCaP cells, the cultivated cells were harvested using a mixture of trypsin/ethylendiaminetetraacetate (0.05%/0.02%) and PBS and centrifuged. After centrifugation, the supernatant was disposed and the cell pellet resuspended in culture medium. Afterwards, cells were counted with a hemocytometer (Neubauer) and seeded in 24-well plates.
Subsequent to the removal of the culture medium, the cells were washed once with DMEM-F12-solution (500 μL, 5% BSA) and left to equilibrate for at least 15 min at 37° C. in DMEM-F12-solution (200 μL, 5% BSA). Afterwards, each well was treated with either DMEM-F12-solution (25 μL, 5% BSA) or 2-PMPA-solution (25 μL, 100 μm) for blockade. […] The experiment was terminated by placing the 24-well plate on ice for 3 min and the consecutive removal of the medium. Each well was rinsed with HBSS (250 μL) and the fractions from these first two steps combined, representing the amount of free radioligand. Removal of surface bound activity was accomplished by incubation of the cells with ice-cold 2-PMPA-solution (250 μL, 10 μm in PBS) for 5 min and subsequent rinsing with ice-cold PBS (250 μL). The internalized activity was determined through incubation of the cells in NaOH (250 μL, 1.0 m) and the combination with the fraction of the subsequent washing step with again NaOH (250 μL, 1.0 m). Each experiment (control and blockade) was performed in triplicate for each time point. Free, surface bound and internalized activity was quantified in a γ-counter.

HSA = biological target: T1, HSA (Homo sapiens, UniProt P02768); test: HSA binding on Chiralpak HSA column; type: in vitro ADME
T1 construct: purchased Daicel Chemical Industries / Chiral Technologies Europe (Illkirch, France)
T1 sequence (P02768 25-609): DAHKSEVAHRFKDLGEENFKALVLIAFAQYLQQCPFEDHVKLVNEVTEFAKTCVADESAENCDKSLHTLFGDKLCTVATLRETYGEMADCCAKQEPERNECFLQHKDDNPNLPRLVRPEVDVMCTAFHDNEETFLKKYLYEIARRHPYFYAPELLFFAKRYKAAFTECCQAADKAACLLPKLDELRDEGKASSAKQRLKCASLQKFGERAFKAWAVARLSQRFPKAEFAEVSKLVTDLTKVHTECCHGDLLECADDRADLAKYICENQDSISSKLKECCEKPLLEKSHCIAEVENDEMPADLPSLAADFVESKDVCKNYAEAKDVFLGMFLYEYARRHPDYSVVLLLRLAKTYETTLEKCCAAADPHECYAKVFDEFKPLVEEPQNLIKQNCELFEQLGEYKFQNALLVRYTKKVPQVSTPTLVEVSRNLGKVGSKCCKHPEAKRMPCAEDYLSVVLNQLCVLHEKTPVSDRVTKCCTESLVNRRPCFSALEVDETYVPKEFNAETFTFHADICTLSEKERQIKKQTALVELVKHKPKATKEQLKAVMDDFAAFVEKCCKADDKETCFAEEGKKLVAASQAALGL
Experimental: HSA binding experiments were performed as previously described. […] For each run, 10 μL of the solution containing the inhibitor was injected into the RP-HPLC system and the retention time measured. […] Non-linear regression was established with OriginPro 2016G.

LNCaP-tumor = tested on: LNCaP-tumor; parameters: species or system CB-17 SCID mice; conditions: male, CB-17 SCID, mouse, in vivo, 85 min
Experimental: (§1) All animal experiments were carried out in accordance with the general animal welfare regulations in Germany (Deutsches Tierschutzgesetz, approval #55.2-1-54-2532-71-13). For the tumor model, LNCaP cells (approx. 10^7 cells) were suspended in serum-free DMEM-F12 medium and Matrigel (1/1; v/v) (BD Biosciences, Germany) and inoculated onto the right shoulder of male, 6 to 8 weeks old CB-17 SCID mice (Charles River Laboratories, Sulzfeld, Germany). Animals were used after the tumor size reached 4 to 8 mm in diameter for experiments.
Imaging experiments were conducted using a Siemens Inveon small animal PET and the data analyzed by the associated Inveon Research Workplace software. Mice were anaesthetized with isoflurane and approx. 4.0 to 17 MBq of the ^68Ga-labeled compounds were injected via tail vein (approx. 150 to 300 μL). Dynamic imaging was carried out after on-bed injection for 90 min. The static blockade image was obtained after 1 h p.i. with 15 min acquisition time. PSMA-blockade was achieved by coinjection of 8 mg/kg of 2-PMPA-solution (PBS). All images were reconstructed using an OSEM3D algorithm without […] and attenuation correction.

LNCaP-tumor xenograft = test: Biodistribution in LNCaP-tumor xenograft bearing CB-17 SCID mice; type: in vivo; conditions: male, CB-17 SCID, mouse, in vivo
Experimental: as §1

[2] = Lipophilicity, logP in n-octanol/PBS of radiolabeled PSMA inhibitors; type: physicochemical; conditions: pH 7.4
Experimental: The radiolabeled PSMA inhibitor (0.5 to 1.0 MBq) dissolved in PBS (500 μL, pH=7.4), was added to n-octanol (500 μL) in a reaction vial (1.5 mL), which was rigorously vortexed for 3 min (n=6). For quantitative phase separation, the mixture was centrifuged at 6,000 g for 5 min (Biofuge 15, Heraus Sepatech, Osterode, Germany). The activity from samples of each phase (100 μL) were measured in a γ-counter to obtain the log P(o/w) value.

LNCaP cells [3] = test: Externalization kinetics / cell retention in LNCaP cells; type: cell-based
Experimental: FIG. 2: Externalization kinetics of selected ^177Lu-labeled PSMA inhibitors from LNCaP cells. […] Then, the supernatant was removed and once washed with DMEM-solution (5% BSA, 37° C.). Afterwards, either A) only DMEM-solution (5% BSA) or B) blockade DMEM-solution (5% BSA, 10 μm 2-PMPA) were added for replacement. The total cellular internalized activity at t=0 min was corrected for non-specific binding (10 μm 2-PMPA) and normalized to 100%. All data are expressed as mean±SD (n=3).
Externalization kinetics of the radiolabeled PSMA inhibitors were determined using LNCaP cells, which were similarly prepared as described for the internalization assay. After an initial cell-washing step with DMEM-F12-solution (5% BSA), the cells were left to recondition for at least 15 min at 37° C. Subsequently, the LNCaP cells were incubated with the respective radiolabeled peptide (25 μL, 10.0 nm) at 37° C. for 60 min in a total volume of 250 μL in each well. After 60 min, the supernatant with the unbound free fraction was removed and measured in a γ-counter for the calculation of total added radioactivity. An acid wash step was avoided to warrant enzyme integrity during the following externalization and recycling study. To determine the recycling rate, fresh DMEM-F12-solution (250 μL, 5% BSA) was given to the cells to allow re-internalization. In contrast, re-internalization was inhibited by addition of DMEM-F12-solution containing 2-PMPA (225 μL DMEM-F12 (5% BSA) and 25 μL of 100 μm 2-PMPA-solution (PBS)). The cells were then incubated for 0, 20, 40 and 60 min at 37° C. Consequently, the supernatant was removed and the cells were washed with ice-cold HBSS (250 μL). The combination of the supernatant and the volume of the concomitant washing step with HBSS (200 μL) account for externalized radioligand at the investigated time point. Further, the cells were then washed with ice-cold 2-PMPA HBSS solution (250 μL, 10 μm) twice, combined and thus represented the fraction of membrane-bound radioligand. The determination of the internalized fraction was achieved by lysis as described for the internalization assay with NaOH (250 μL, 1.0 m). The activities of free, externalized, membrane-bound and internalized radioligand were quantified in a γ-counter.

PSMA = biological target: T2, PSMA (Homo sapiens, UniProt Q04609); test: Competitive binding assay (IC50) on LNCaP cells with ([^125I]I-BA)KuE as radioligand; conditions: LNCaP cells 1.5*10^5 cells/well, 1 h, 4° C., HBSS + 1% BSA, radioligand ([^125I]I-BA)KuE; mean ± SD (n = 3)
T2 construct: host or cells: LNCaP cells
T2 sequence (Q04609 whole entry): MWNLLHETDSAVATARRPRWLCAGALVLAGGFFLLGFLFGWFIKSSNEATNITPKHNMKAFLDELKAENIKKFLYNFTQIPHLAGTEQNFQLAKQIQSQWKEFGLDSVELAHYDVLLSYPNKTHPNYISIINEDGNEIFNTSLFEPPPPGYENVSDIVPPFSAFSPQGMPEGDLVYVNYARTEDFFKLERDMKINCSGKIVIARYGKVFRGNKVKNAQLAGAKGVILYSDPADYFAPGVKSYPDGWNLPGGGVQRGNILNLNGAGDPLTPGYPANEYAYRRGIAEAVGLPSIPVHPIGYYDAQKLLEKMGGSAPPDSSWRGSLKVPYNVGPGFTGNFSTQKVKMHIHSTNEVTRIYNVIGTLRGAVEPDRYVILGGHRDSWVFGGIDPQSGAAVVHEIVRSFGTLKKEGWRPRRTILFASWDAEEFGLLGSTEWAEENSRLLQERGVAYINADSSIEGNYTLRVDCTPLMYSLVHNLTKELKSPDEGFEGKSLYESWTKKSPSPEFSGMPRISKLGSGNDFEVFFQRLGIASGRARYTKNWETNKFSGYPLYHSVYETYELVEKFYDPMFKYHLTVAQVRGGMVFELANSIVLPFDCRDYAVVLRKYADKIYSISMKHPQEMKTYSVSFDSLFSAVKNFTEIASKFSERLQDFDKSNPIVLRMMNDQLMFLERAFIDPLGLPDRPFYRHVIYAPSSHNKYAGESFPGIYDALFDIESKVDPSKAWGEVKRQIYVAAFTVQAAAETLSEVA
Experimental: One day (24 h±2 h) prior to all experiments with LNCaP cells, the cultivated cells were harvested using a mixture of trypsin/ethylendiaminetetraacetate (0.05%/0.02%) and PBS and centrifuged. After centrifugation, the supernatant was disposed and the cell pellet resuspended in culture medium. Afterwards, cells were counted with a hemocytometer (Neubauer) and seeded in 24-well plates.
After removal of the culture medium, the cells were treated once with HBSS (500 μL, Hank's balanced salt solution, Biochrom, Berlin, Germany, with addition of 1% BSA) and left 15 min on ice for equilibration in HBSS (200 μL, 1% BSA). […] All experiments were performed at least three times for each concentration. After 60 min incubation on ice, the experiment was terminated by removal of the medium and consecutive rinsing with HBSS (200 μL). The media of both steps were combined in one fraction and represent the amount of free radioligand. Afterwards, the cells were lysed with NaOH (250 μL, 1.0 m) and united with the HBSS (200 μL) of the following washing step. Quantification of bound and free radioligand was accomplished in a γ-counter.

[4] = after logarithmic plotting and calibration (n = 1)

With `O=C(O)CC[C@H](NC(=O)N[C@@H](CCCCNC(=O)CCCCC[C@H](NC(=O)c1ccc([N+](=O)[O-])cc1[N+](=O)[O-])C(=O)NCCCC[C@@H](NC(=O)[C@@H](Cc1ccccc1)NC(=O)[C@@H](Cc1ccc(O)c(I)c1)NC(=O)CCC(C(=O)O)N1CCN(CC(=O)O)CCN(CC(=O)O)CCN(CC(=O)O)CC1)C(=O)O)C(=O)O)C(=O)O` (stereo partly drawn) [PSMA-36, DOTAGA-y(3-I)fk(L-Asu[KuE]-2,4-DNBA)] the Internalization (LNCaP cells [1]) was 189.8 ± 37.5%, the “HSA (albumin binding)” value (HSA; [4]) was 82.5% and the “tumor uptake (PET)” value (LNCaP-tumor) was 3.5 % ID/mL.

With `O=C(O)CC[C@H](NC(=O)N[C@@H](CCC(=O)N[C@H](CCCNC(=O)C[C@@H](NC(=O)c1cc(C(=O)O)cc(C(=O)O)c1)C(=O)NCCCC[C@@H](NC(=O)[C@@H](Cc1ccc2ccccc2c1)NC(=O)[C@@H](Cc1ccc(O)cc1)NC(=O)[C@H](CNC(=O)c1cc(C(=O)O)cc(C(=O)O)c1)NC(=O)CCC(C(=O)O)N1CCN(CC(=O)O)CCN(CC(=O)O)CCN(CC(=O)O)CC1)C(=O)O)C(=O)O)C(=O)O)C(=O)O` (stereo partly drawn) [PSMA-66, DOTAGA-Dap(TMA)y-2-nal-k(d[N^5-orn-C^4-EuE]-TMA)] the Internalization (LNCaP cells [1]; listed as [^177Lu]PSMA-66) was 297.8±2.0% and 297.8%, the Internalization (LNCaP cells [1]; listed as [^nat/177Lu]PSMA-66) was 297.8 ± 2.0% and the adrenal gland (LNCaP-tumor xenograft; 1 h) was 0.78 ± 0.07 % ID/g. It also gave a blood (LNCaP-tumor xenograft; 1 h) of 0.50 ± 0.03 % ID/g, a bone (LNCaP-tumor xenograft; 1 h) of 0.37 ± 0.13 % ID/g and a brain (LNCaP-tumor xenograft; 1 h) of 0.02 ± 0.01 % ID/g. The heart (LNCaP-tumor xenograft; 1 h) was 0.49 ± 0.06 % ID/g, the intestine (LNCaP-tumor xenograft; 1 h) was 0.21 ± 0.03 % ID/g and the liver (LNCaP-tumor xenograft; 1 h) was 0.32 ± 0.02 % ID/g. The lung (LNCaP-tumor xenograft; 1 h) was 0.62 ± 0.12 % ID/g, the muscle (LNCaP-tumor xenograft; 1 h) was 0.19 ± 0.07 % ID/g and the pancreas (LNCaP-tumor xenograft; 1 h) was 0.15 ± 0.04 % ID/g. For the same molecule, the spleen (LNCaP-tumor xenograft; 1 h) was 1.93 ± 0.04 % ID/g, the stomach (LNCaP-tumor xenograft; 1 h) was 0.28 ± 0.04 % ID/g and the tumor/blood (LNCaP-tumor xenograft; 1 h) was 20.0. For the same molecule, the tumor/kidney (LNCaP-tumor xenograft; 1 h) was 0.09, the tumor/muscle (LNCaP-tumor xenograft; 1 h) was 52.6 and the adrenal g. (LNCaP-tumor xenograft; 24 h) was 0.09 ± 0.09 % ID/g. For the same molecule, the blood (LNCaP-tumor xenograft; 24 h) was 0.003 ± 0.001 % ID/g, the bone (LNCaP-tumor xenograft; 24 h) was 0.02 ± 0.01 % ID/g and the brain (LNCaP-tumor xenograft; 24 h) was 0.01 ± 0.001 % ID/g. It also gave a heart (LNCaP-tumor xenograft; 24 h) of 0.03 ± 0.007 % ID/g, an intestine (LNCaP-tumor xenograft; 24 h) of 0.11 ± 0.07 % ID/g and a kidney (LNCaP-tumor xenograft; 24 h) of 20.92 ± 2.51 % ID/g. The liver (LNCaP-tumor xenograft; 24 h) was 0.14 ± 0.02 % ID/g, the lung (LNCaP-tumor xenograft; 24 h) was 0.03 ± 0.007 % ID/g and the muscle (LNCaP-tumor xenograft; 24 h) was 0.02 ± 0.006 % ID/g. It also gave a pancreas (LNCaP-tumor xenograft; 24 h) of 0.02 ± 0.007 % ID/g, a spleen (LNCaP-tumor xenograft; 24 h) of 0.09 ± 0.02 % ID/g and a stomach (LNCaP-tumor xenograft; 24 h) of 0.07 ± 0.03 % ID/g. It also gave a t/blood (LNCaP-tumor xenograft; 24 h) of 1910.0, a t/kidney (LNCaP-tumor xenograft; 24 h) of 0.3 and a t/liver (LNCaP-tumor xenograft; 24 h) of 40.9. For the same molecule, the t/muscle (LNCaP-tumor xenograft; 24 h) was 286.5, the logP [2] was -4.25 ± 0.14 and the “HSA (albumin binding)” value (HSA; human, 0.5 mg/mL) was 64.4%. For the same molecule, the “in vitro tumor cell retention” value (LNCaP cells [3]; 60 min incubation, ^177Lu-labeled) was 90.1±3.5%, the “intracellular activity in the tumor cells” value (LNCaP cells [3]; after 1 h, ^177Lu-labeled) was “highest intracellular activity in the tumor cells after 1 h” and the intracellular clearance (LNCaP cells [3]; re-internalization blocked with 100 μM 2-PMPA-solution) was “lower than for all other investigated compounds”.

With `O=C(O)CC[C@H](NC(=O)N[C@@H](CCCCNC(=O)[C@H](Cc1ccc2ccccc2c1)NC(=O)[C@H]1CC[C@H](CNC(=O)CN2CCN(CC(=O)O)CCN(CC(=O)O)CCN(CC(=O)O)CC2)CC1)C(=O)O)C(=O)O` [PSMA-617, reference compound] the Internalization (LNCaP cells [1]) was 160.1 ± 1.5%, the “HSA (albumin binding)” value (HSA; [4]) was 74.7% and the IC50 (PSMA) was 3.8 ± 1.7 nM.
